In patent US20030064895A1, “Genes for s-adenosyl l-methionine: jasmonic acid carboxyl methyltransferase and a method for the development of pathogen-and stress-resistant plants using the genes” (priority 2000, published 2003):
“Also recorded” adds a separate entry of the source.

Assays:
[1] = biological target: T1, jasmonic acid carboxyl methyltransferase (Arabidopsis thaliana, UniProt Q9AR07); assay: Kinetic parameters of recombinant JMT protein (Lineweaver-Burk plot); type: biochemical; settings: named substance as substrate of recombinant JMT; for Km: SAM and JA as substrates
T1 construct: it could be noted that this selected cDNA clone is a full-length cDNA clone; made in house; host or cells: E. coli BL21 (pGEX-2T, plasmid pGST-JMT)
T1 sequence (Q9AR07 1-389): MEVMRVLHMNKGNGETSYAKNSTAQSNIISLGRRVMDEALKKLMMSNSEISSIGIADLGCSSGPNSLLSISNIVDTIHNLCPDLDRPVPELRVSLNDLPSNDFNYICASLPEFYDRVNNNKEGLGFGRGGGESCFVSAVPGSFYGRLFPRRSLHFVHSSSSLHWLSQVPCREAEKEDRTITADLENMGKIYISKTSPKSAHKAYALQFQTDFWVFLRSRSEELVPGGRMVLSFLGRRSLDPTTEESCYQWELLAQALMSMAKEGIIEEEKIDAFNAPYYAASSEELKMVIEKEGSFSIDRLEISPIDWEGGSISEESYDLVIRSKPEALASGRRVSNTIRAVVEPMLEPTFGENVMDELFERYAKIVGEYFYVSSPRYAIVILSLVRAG

JMT enzyme (GST-JMT) = biological target: T2, JMT enzyme (GST-JMT) (Arabidopsis thaliana, UniProt Q9AR07); assay: Substrate specificity of fusion enzyme protein GST-JMT with SAM / [14C]SAM; type: biochemical; settings: reaction with JA defined to be 100%
T2 construct: it could be noted that this selected cDNA clone is a full-length cDNA clone; made in house; host or cells: E. coli BL21 (pGEX-2T, plasmid pGST-JMT)
T2 sequence (Q9AR07 1-389): T1 sequence (Q9AR07 1-389)

[2] = system: pathogens belonging to Phytium genus; settings: treatment at the level of 130 μM; cited from earlier work

| Compound | Kcat [1] [s⁻¹] | Vm [1] [nmol/min] | Km [1] [µM] | reactivity as methyl acceptor substrate of JMT enzyme (JMT enzyme (GST-JMT)) | effect on the growth of pathogen [2] |
| --- | --- | --- | --- | --- | --- |
| jasmonic acid [(±)JA] | 15 | 30 | 38.5 | high reactivity | no effect |
| S-adenosyl methionine [SAM] | 70 | 84 | 6.3 | – | – |
| O=C(O)c1ccccc1O [SA, salicylic acid] | – | – | – | substantially not react; also recorded: substantially not proceeded | – |
| O=C(O)c1ccccc1 [BA, benzoic acid] | – | – | – | substantially not react; also recorded: substantially not proceeded | – |
